# Structures can show the parent of a compound that is named as a salt.
# Legend:
# [1] = target: T1, recombinant human α1D receptor (Homo sapiens, UniProt P25100); assay: Adrenergic α1D selectivity binding assay ([3H]-prazosin); details: inhibition of [3H]-prazosin binding, HEK293 membranes, read-out: α1 bind pIC50 (converted)
# T1 construct: expressed in transfected cells; host or cells: HEK293
# T1 sequence (P25100 1-572): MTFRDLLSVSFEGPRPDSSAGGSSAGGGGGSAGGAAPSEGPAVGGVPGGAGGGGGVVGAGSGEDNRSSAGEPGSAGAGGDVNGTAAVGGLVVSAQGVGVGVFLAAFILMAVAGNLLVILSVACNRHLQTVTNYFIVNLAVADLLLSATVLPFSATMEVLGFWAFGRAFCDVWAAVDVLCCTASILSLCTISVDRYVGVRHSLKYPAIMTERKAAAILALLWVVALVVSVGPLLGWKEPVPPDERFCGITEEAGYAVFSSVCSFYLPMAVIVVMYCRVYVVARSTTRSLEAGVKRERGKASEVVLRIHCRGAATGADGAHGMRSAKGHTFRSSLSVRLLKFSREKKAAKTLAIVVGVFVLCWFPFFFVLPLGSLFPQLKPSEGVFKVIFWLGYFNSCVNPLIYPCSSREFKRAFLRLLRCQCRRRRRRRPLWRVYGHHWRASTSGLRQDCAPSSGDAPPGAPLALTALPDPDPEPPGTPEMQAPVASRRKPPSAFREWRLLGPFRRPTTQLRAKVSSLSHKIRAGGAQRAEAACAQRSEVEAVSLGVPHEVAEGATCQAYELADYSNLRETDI
# Protocol: Membranes were prepared from human embryonic kidney 293 (HEK293) cells expressing recombinant human α1D receptor. These were diluted in Assay Buffer (50 mM HEPES, 1 mM EDTA, pH 7.4) to provide a final concentration of membranes that gave a clear window between maximum and minimum specific binding.
# (§1) Assays were performed in U-bottomed 96-well polypropylene plates. 10 μl [^3H]-prazosin (0.3 nM final concentration) and 10 μl of test compound (10× final concentration) were added to each test well. For each assay plate 8 replicates were obtained for [^3H]-prazosin binding in the presence of 10 μl vehicle (10% (v/v) DMSO in Assay Buffer; defining maximum binding) or 10 μL BMY7378 (10 μM final concentration; defining non-specific binding (NSB)). Membranes were then added to achieve a final volume of 100 μL. The plates were incubated for 2 h at room temperature and then filtered onto PEI coated GF/B filter plates, pre-soaked for 1 h in Assay Buffer, using a 96-well plate Tomtec cell harvester. Five washes with 250 μl wash buffer (50 mM HEPES, 1 mM EDTA, pH 7.4) were performed at 4° C. to remove unbound radioactivity. The plates were dried then sealed from underneath using Packard plate sealers and MicroScint-O (50 μl) was added to each well. The plates were sealed (TopSeal A) and filter-bound radioactivity was measured with a scintillation counter (TopCount, Packard BioScience) using a 3-minute counting protocol.
# (§2) Total specific binding (B0) was determined by subtracting the mean NSB from the mean maximum binding. NSB values were also subtracted from values from all other wells. […] Data was fitted to a four parameter logistic equation to determine the compound potency, which was expressed as pIC50 (negative log molar concentration inducing 50% inhibition of [^3H]-prazosin binding).
# [2] = target: T2, recombinant human adrenergic beta 1 receptors (Homo sapiens, UniProt P08588); assay: Adrenergic β1 selectivity binding assay ([125I]-Iodocyanopindolol); details: inhibition of [125I]-Iodocyanopindolol binding, human β1 membranes; read-out: β1 bind p IC50 (converted)
# T2 construct: purchased Euroscreen
# T2 sequence (P08588 whole entry): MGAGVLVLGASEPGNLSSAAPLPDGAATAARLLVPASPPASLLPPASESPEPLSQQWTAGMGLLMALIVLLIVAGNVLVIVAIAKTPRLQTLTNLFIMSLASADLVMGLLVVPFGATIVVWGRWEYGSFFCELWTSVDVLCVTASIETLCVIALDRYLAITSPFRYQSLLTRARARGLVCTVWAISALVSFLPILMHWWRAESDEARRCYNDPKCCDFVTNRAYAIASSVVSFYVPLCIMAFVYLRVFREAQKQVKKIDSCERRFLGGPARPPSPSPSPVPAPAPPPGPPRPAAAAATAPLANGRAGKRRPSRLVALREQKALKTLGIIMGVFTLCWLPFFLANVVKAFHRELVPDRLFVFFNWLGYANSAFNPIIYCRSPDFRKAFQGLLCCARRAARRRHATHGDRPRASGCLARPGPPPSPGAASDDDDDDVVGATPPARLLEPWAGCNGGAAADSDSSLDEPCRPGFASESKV
# Protocol: (§3) Membranes containing recombinant human adrenergic beta 1 receptors were obtained from Euroscreen. These were diluted in Assay Buffer (50 mM HEPES, 1 mM EDTA, 120 mM NaCl, 0.1% gelatin, pH 7.4) to provide a final concentration of membranes that gave a clear window between maximum and minimum specific binding.
# as §1, with “plates. 10 μL [^125I]-Iodocyanopindolol (0.036 nM final” for “plates. 10 μl [^3H]-prazosin (0.3 nM final”, “and 10 μL of test” for “and 10 μl of test”, “obtained for [^125I]-Iodocyanopindolol binding in” for “obtained for [^3H]-prazosin binding in”, “or 10 μl Propranolol (10 μM” for “or 10 μL BMY7378 (10 μM”, “with 250 μL wash buffer” for “with 250 μl wash buffer”, “mM EDTA, 120 mM NaCl, pH 7.4)” for “mM EDTA, pH 7.4)”
# as §2, with “[^125I]-Iodocyanopindolol” for “[^3H]-prazosin”
# [3] = target: T3, Adrenergic β2 (Homo sapiens, UniProt P07550); assay: Adrenergic β2 mediated cAMP production in H292 cells (AlphaScreen cAMP detection); format: cell-based; details: for β2 Int Act: Intrinsic Activity, fraction relative to the maximum activity determined for formoterol; for EC50: cAMP production, 60 min at room temperature, 300 μM rolipram, read-out: β2 pEC50 (converted)
# T3 construct: Adherent H292 cells were removed from tissue culture flasks; endogenous in cells; host or cells: H292 cells
# T3 sequence (P07550 whole entry): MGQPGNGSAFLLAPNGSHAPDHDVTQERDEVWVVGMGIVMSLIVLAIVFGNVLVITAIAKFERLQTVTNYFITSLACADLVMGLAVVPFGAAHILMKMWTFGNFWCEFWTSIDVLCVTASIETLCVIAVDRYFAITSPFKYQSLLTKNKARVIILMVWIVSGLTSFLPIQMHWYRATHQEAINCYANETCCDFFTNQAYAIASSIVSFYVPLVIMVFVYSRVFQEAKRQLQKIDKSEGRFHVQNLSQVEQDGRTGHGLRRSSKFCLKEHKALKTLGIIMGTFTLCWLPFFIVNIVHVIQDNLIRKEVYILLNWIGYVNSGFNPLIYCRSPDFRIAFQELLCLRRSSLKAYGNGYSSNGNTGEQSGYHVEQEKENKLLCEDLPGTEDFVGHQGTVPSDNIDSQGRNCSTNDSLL
# Protocol: H292 cells were grown in 225 cm2 flasks incubator at 37° C., 5% CO2 in RPMI medium containing, 10% (v/v) FBS (foetal bovine serum) and 2 mM L-glutamine.
# Adherent H292 cells were removed from tissue culture flasks by treatment with Accutase™ cell detachment solution for 15 min. Flasks were incubated for 15 min in a humidified incubator at 37° C., 5% CO2. Detached cells were re-suspended in RPMI media (containing 10% (v/v) FBS and 2 mM L-glutamine) at […]. 10000 cells in 100 μl were added to each well of a tissue-culture-treated 96-well plate and the cells incubated overnight in a humidified incubator at 37° C., 5% CO2. The culture media was removed and cells were washed twice with 100 μl assay buffer and replaced with 50 μL assay buffer (HBSS solution containing 10 mM HEPES pH7.4 and 5 mM glucose). Cells were rested at room temperature for 20 min after which time 25 μl of rolipram (1.2 mM made up in assay buffer containing 2.4% (v/v) dimethylsulphoxide) was added. Cells were incubated with rolipram for 10 min after which time test compounds were added and the cells were incubated for 60 min at room temperature. The final rolipram concentration in the assay was 300 μM and final vehicle concentration was 1.6% (v/v) dimethylsulphoxide. The reaction was stopped by removing supernatants, washing once with 100 μL assay buffer and replacing with 50 μL lysis buffer. The cell monolayer was frozen at −80° C. for 30 min (or overnight).
# AlphaScreen™ cAMP Detection
# The concentration of cAMP (cyclic adenosine monophosphate) in the cell lysate was determined using AlphaScreen™ methodology. The frozen cell plate was thawed for 20 min on a plate shaker then 10 μl of the cell lysate was transferred to a 96-well white plate. 40 μL of mixed AlphaScreen™ detection beads pre-incubated with biotinylated cAMP, was added to each well and the plate incubated at room temperature for 10 h in the dark. The AlphaScreen™ signal was measured using an EnVision spectrophotometer (Perkin-Elmer Inc.) with the recommended manufacturer's settings. cAMP concentrations were determined by reference to a calibration curve determined in the same experiment using standard cAMP concentrations. Concentration response curves for agonists were constructed and data was fitted to a four parameter logistic equation to determine both the pEC50 and Intrinsic Activity. Intrinsic Activity was expressed as a fraction relative to the maximum activity determined for formoterol in each experiment.
# [4] = target: T4, recombinant human Dopamine Subtype D2s receptors (Homo sapiens, UniProt P14416); assay: Dopamine D2 selectivity binding assay ([3H]-spiperone); details: inhibition of [3H]-spiperone binding, human D2s membranes; read-out: D2 bind pIC50 (converted)
# T4 construct: purchased Perkin Elmer
# T4 sequence (P14416 1-414 isoform P14416-2): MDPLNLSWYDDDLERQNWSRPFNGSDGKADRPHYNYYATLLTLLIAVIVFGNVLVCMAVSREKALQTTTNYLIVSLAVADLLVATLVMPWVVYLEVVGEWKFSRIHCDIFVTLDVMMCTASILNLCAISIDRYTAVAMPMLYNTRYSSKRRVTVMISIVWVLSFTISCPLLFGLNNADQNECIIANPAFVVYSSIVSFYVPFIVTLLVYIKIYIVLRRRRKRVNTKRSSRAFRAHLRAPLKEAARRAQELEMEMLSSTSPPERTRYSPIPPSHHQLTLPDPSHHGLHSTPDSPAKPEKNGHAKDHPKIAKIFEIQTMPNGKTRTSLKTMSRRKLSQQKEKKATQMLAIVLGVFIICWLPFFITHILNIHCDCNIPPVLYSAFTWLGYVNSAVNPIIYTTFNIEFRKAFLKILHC
# Protocol: as §3, with “Dopamine Subtype D2s” for “adrenergic beta 1”, “Perkin Elmer.” for “Euroscreen.”
# Assays were performed in U-bottomed 96-well polypropylene plates. 30 μL [^3H]-spiperone (0.16 nM final concentration) and 30 μl of test compound (10× final concentration) were added to each test well. For each assay plate 8 replicates were obtained for [^3H]-spiperone binding in the presence of 30 μL vehicle (10% (v/v) DMSO in Assay Buffer; defining maximum binding) or 30 μl Haloperidol (10 μM final concentration; defining non-specific binding (NSB)). Membranes were then added to achieve a final volume of 300 μL. The plates were incubated for 2 h at room temperature and then filtered onto PEI coated GF/B filter plates, pre-soaked for 1 h in Assay Buffer, using a 96-well plate Tomtec cell harvester. Five washes with 250 μl wash buffer (50 mM HEPES, 1 mM EDTA, 120 mM NaCl, pH 7.4) were performed at 4° C. to remove unbound radioactivity. The plates were dried then sealed from underneath using Packard plate sealers and MicroScint-O (50 μl) was added to each well. The plates were sealed (TopSeal A) and filter-bound radioactivity was measured with a scintillation counter (TopCount, Packard BioScience) using a 3-minute counting protocol.
# as §2, with “[^3H]-spiperone” for “[^3H]-prazosin”
IC50 [1] [nM],IC50 [2] [nM],β2 Int Act [3],EC50 [3] [nM],IC50 [4] [nM],SMILES
1000,> 7940,0.96,6.31,–,Cn1cc(-c2cccc(CCOCCC(=O)N(CCNCCc3ccc(O)c4c3OCC(=O)N4)C3CCCCC3)c2)cn1 [01 and 02]
1580,–,0.95,12.6,2000,"Cn1cc(-c2cccc(CCOCCC(=O)N(CCNCCc3ccc(O)c4c3OCC(=O)N4)C3CCCCCC3)c2)nn1 [Example 06, N-Cycloheptyl-N-(2-(2-(5-hydroxy-3-oxo-3,4-dihydro-2H-benzo[b][1,4]oxazin-8-yl)ethylamino)ethyl)-3-(3-(1-methyl-1H-1,2,3-triazol-4-yl)phenethoxy)propanamide Trifluoroacetic Acid Salt]"
631,–,0.85,10,3980,"O=C1COc2c(CCNCCN(C(=O)CCOCCc3cccc(-c4ncon4)c3)C3CCCCC3)ccc(O)c2N1 [Example 11, 3-(3-(1,2,4-Oxadiazol-3-yl)phenethoxy)-N-cyclohexyl-N-(2-(2-(5-hydroxy-3-oxo-3,4-dihydro-2H-benzo[b][1,4]oxazin-8-yl)ethylamino)ethyl)propanamide Trifluoroacetic Acid Salt]"
501,> 10000,1.00,10,–,"CC(C)[C@@H](C)N(CCNCCc1ccc(O)c2c1OCC(=O)N2)C(=O)CCOCCc1cccc(-c2cnn(C(C)C)c2)c1 [Example 20, (R)—N-(2-(2-(5-Hydroxy-3-oxo-3,4-dihydro-2H-benzo[b][1,4]oxazin-8-yl)ethylamino)ethyl)-3-(3-(1-isopropyl-1H-pyrazol-4-yl)phenethoxy)-N-(3-methylbutan-2-yl)propanamide Trifluoroacetic Acid Salt]"
794,> 10000,0.98,6.31,–,"CCn1cc(-c2cccc(CCOCCC(=O)N(CCNCCc3ccc(O)c4c3OCC(=O)N4)[C@H](C)C(C)C)c2)cn1 [Example 23, (R)-3-(3-(1-Ethyl-1H-pyrazol-4-yl)phenethoxy)-N-(2-(2-(5-hydroxy-3-oxo-3,4-dihydro-2H-benzo[b][1,4]oxazin-8-yl)ethylamino)ethyl)-N-(3-methylbutan-2-yl)propanamide Trifluoroacetic Acid Salt]"
1000,> 7940,0.97,10,–,"CCCn1cc(-c2cccc(CCOCCC(=O)N(CCNCCc3ccc(O)c4c3OCC(=O)N4)C3CCCC3)c2)cn1 [Example 18, N-Cyclopentyl-N-(2-(2-(5-hydroxy-3-oxo-3,4-dihydro-2H -benzo[b][1,4]oxazin-8-yl)ethylamino)ethyl)-3-(3-(1-propyl-1H -pyrazol-4-yl)phenethoxy)propanamide Trifluoroacetic Acid Salt]"

# Reference: patent US8017602B2, “N-(2-(2-(5-hydroxy-3-oxo-3,4-dihydro-2H-benzo[b][1,4]oxazin-8-yl)ethylamino)ethyl)-3-(phenethoxy)propanamide derivatives, processes for their preparation, pharmaceutical compositions containing them and their use in therapy” (AstraZeneca AB, priority 2008, dated 2011)
